Results taken from ChEMBL document CHEMBL1614632, “Trend analysis of a database of intravenous pharmacokinetic parameters in humans for 670 drug compounds” (Drug Metab Dispos, 2008).

Columns and labels:
clinical [1] = settings: human, in vivo, iv
clinical [2] = settings: human, in vivo, iv; remark: listed apart in the source
clinical [3] = settings: human, in vivo, iv, Vdss
clinical [4] = settings: human, in vivo, iv, CL
clinical [5] = settings: human, in vivo, iv, t1/2

Row | SMILES | fraction unbound (clinical [1]) | MRT (clinical [2]) [h] | Vd (clinical [3]) [L/kg] | clearance (clinical [4]) [mL/min/kg] | half-life (clinical [5]) [h]
1 | CCC(=O)OCC(=O)[C@@]1(OC(=O)CC)[C@@H](C)C[C@H]2[C@@H]3CCC4=CC(=O)C=C[C@]4(C)[C@@]3(Cl)[C@@H](O)C[C@@]21C [BECLOMETHASONE DIPROPIONATE] | 0.13 | 0.1 | 0.29 | 36 | 0.5
2 | CCCc1cc(=O)[nH]c(=S)[nH]1 [PROPYLTHIOURACIL] | 0.18 | 1.8 | 0.34 | 3.1 | 1.3
3 | CCN(CC)CCNC(=O)c1ccc(NC(C)=O)cc1 [ACECAINIDE] | 0.9 | 7.9 | 1.9 | 4 | 6.4
4 | COCC(=O)O[C@]1(CCN(C)CCCc2nc3ccccc3[nH]2)CCc2cc(F)ccc2[C@@H]1C(C)C [MIBEFRADIL] | 0.005 | 13 | 3.1 | 4 | 13
5 | NC(N)=Nc1nc(CSCCC(N)=NS(N)(=O)=O)cs1 [FAMOTIDINE] | 0.84 | 3 | 1.2 | 6.6 | 2.8
6 | Cc1cccc([C@H](C)c2cnc[nH]2)c1C [DEXMEDETOMIDINE] | 0.06 | 2.5 | 1.6 | 11 | 2.2
7 | C=C[C@@]1(O)C[N+]2(C)CC[C@H]1C[C@@H]2[C@@H](O)c1ccnc2ccc(OC)cc12 | 0.47 | 9.4 | 6.8 | 12 | 6.7
8 | CCCN1CCCC[C@H]1C(=O)Nc1c(C)cccc1C [ROPIVACAINE] | 0.06 | 2.3 | 0.75 | 5.5 | 2.2
9 | CO[C@@]1(NC(=O)C(C(=O)O)c2ccc(O)cc2)C(=O)N2C(C(=O)O)=C(CSc3nnnn3C)CO[C@@H]21 (stereo not given in full) [MOXALACTAM] | 0.39 | 3.9 | 0.17 | 0.72 | 2.9
10 | O=C1c2c(O)ccc(O)c2C(=O)c2c(NCCNCCO)ccc(NCCNCCO)c21 [MITOXANTRONE] | 0.25 | 25 | 12 | 7.9 | 53
11 | Cc1ccc(C(=O)c2cc(O)c(O)c([N+](=O)[O-])c2)cc1 [TOLCAPONE] | 0.0012 | 1.1 | 0.12 | 1.9 | 1.1
12 | CC1(C)O[C@@H]2C[C@H]3[C@@H]4CCC5=CC(=O)C=C[C@]5(C)[C@@]4(F)[C@@H](O)C[C@]3(C)[C@]2(C(=O)CO)O1 [TRIAMCINOLONE ACETONIDE] | 0.2 | 2.5 | 1.4 | 9.4 | 2.4
13 | CCN[C@@H]1C[C@H](N)[C@@H](O[C@H]2OC(CN)=CC[C@H]2N)[C@H](O)[C@H]1O[C@H]1OC[C@](C)(O)[C@H](NC)[C@H]1O [NETILMICIN] | 1 | 2.2 | 0.073 | 0.55 | 3.2
14 | CC[C@@]1(O)C(=O)OCc2c1cc1n(c2=O)Cc2cc3c(N)cccc3nc2-1 [9-AMINOCAMPTOTHECIN] | 0.003 | 5.6 | 2.2 | 6.5 | 7
15 | CN(C)C(=O)CCS[C@H](SCCC(=O)O)c1cccc(/C=C/c2ccc3ccc(Cl)cc3n2)c1 | 0.0004 | 2.7 | 0.11 | 0.68 | 2.3
16 | CO/N=C(\C(=O)N[C@@H]1C(=O)N2C(C(=O)[O-])=C(C[n+]3cccc4c3CCC4)CS[C@H]12)c1csc(N)n1 [CEFPIROME] | 0.9 | 2.1 | 0.24 | 1.9 | 1.7

Row | SMILES | fraction unbound (clinical [1]) | MRT (clinical [2]) [h] | Vd (clinical [3]) [L/kg] | clearance (clinical [4]) [mL/min/kg] | half-life (clinical [5]) [h]
17 | CN(C)[C@@H]1C(O)=C(C(N)=O)C(=O)[C@@]2(O)C(O)=C3C(=O)c4c(O)ccc(Cl)c4[C@@H](O)[C@H]3C[C@@H]12 [DEMECLOCYCLINE] | 0.59 | 17 | 1.3 | 1.1 | 12
18 | Nc1c2c(nc3ccccc13)CCCC2 [TACRINE] | 0.25 | 3.3 | 11 | 56 | 3.3
19 | CO/N=C(\C(=O)N[C@@H]1C(=O)N2C(C(=O)O)=C(COC(C)=O)CS[C@H]12)c1csc(N)n1 [CEFOTAXIME] | 0.6 | 1.2 | 0.19 | 2.7 | 1.2
20 | Cc1nnc2n1-c1sc(Br)cc1C(c1ccccc1Cl)=NC2 [BROTIZOLAM] | 0.092 | 6 | 0.75 | 2 | 4.8
21 | CC1(C)S[C@@H]2[C@H](NC(=O)[C@H](NC(=O)N3CCNC3=O)c3ccccc3)C(=O)N2[C@H]1C(=O)O [AZLOCILLIN] | 0.65 | 1.7 | 0.26 | 2.5 | 1.2
22 | Nc1nc(NC2CC2)c2ncn([C@H]3C=C[C@@H](CO)C3)c2n1 [ABACAVIR] | 0.5 | 1.1 | 0.84 | 13 | 1
23 | Cc1cccc(N2CC(CO)OC2=O)c1 (stereo not given) [TOLOXATONE] | 0.49 | 2.3 | 1.5 | 11 | 1.6
24 | O=C(Cc1cccs1)N[C@@H]1C(=O)N2C(C(=O)[O-])=C(C[n+]3ccccc3)CS[C@H]12 [CEPHALORIDINE] | 0.8 | 2.3 | 0.46 | 3.3 | 1.5
25 | CO/N=C(\C(=O)N[C@@H]1C(=O)N2C(C(=O)O)=C(CSc3nc(=O)c(=O)[nH]n3C)CS[C@H]12)c1csc(N)n1 [CEFTRIAXONE] | 0.052 | 5.4 | 0.085 | 0.26 | 8.6
26 | CCOC(=O)C1(c2ccccc2)CCN(C)CC1 [MEPERIDINE] | 0.42 | 6.4 | 2.3 | 4.9 | 7.9
27 | CCCNC(C)C(=O)Nc1ccccc1C (stereo not given) [PRILOCAINE] | 0.72 | 2.2 | 3.7 | 29 | 1.8
28 | CCn1cc(C(=O)O)c(=O)c2cc(F)c(N3CCNCC3)nc21 [ENOXACIN] | 0.8 | 6.2 | 2 | 5.4 | 5.1
29 | O=C(NC1CCN(CCc2c[nH]c3ccccc23)CC1)c1ccccc1 [INDORAMIN] | 0.15 | 4.1 | 4.9 | 20 | 4.3
30 | CCCCCCCCCC(=O)N[C@@H](Cc1c[nH]c2ccccc12)C(=O)N[C@H](CC(N)=O)C(=O)N[C@@H](CC(=O)O)C(=O)N[C@@H]1C(=O)NCC(=O)N[C@@H](CCCN)C(=O)N[C@@H](CC(=O)O)C(=O)N[C@H](C)C(=O)N[C@@H](CC(=O)O)C(=O)NCC(=O)N[C@H](CO)C(=O)N[C@@H]([C@H](C)CC(=O)O)C(=O)N[C@@H](CC(=O)c2ccccc2N)C(=O)O[C@@H]1C | 0.083 | 9.2 | 0.088 | 0.16 | 8.1
31 | CCCC(=O)N1CCCN(c2nc(N)c3cc(OC)c(OC)cc3n2)CC1 [BUNAZOSIN] | 0.06 | 2.5 | 0.72 | 4.8 | 2
32 | CCOC(=O)[C@@H]1C2CCC(C[C@@H]1OC(=O)c1ccccc1)N2C (stereo not given in full) [COCAETHYLENE] | 0.64 | 2 | 1.6 | 13 | 1.5
